# According to US7622469B2, “2,4-diamino-1,3,5-triazine derivatives” (Hamari Chemicals, Ltd., priority 2002, dated 2009):
# Tests used:
# E. coli NIHJ JC-2 [1] = experiment: Antibacterial activity test (MIC); format: cell-based; details: Mueller-Hinton Broth, 37° C., 20 to 24 hours
# Procedure: (§1) Regarding compounds obtained in respective Working Examples, in order to investigate antibacterial activity, minimal inhibitory concentration (MIC) was determined according to a standard method of Japanese Society of Chemotherapy.
# (§2) As a test bacterium, nine kinds of S. aureus 209PJC, MRSA 97-115, MRSA KM 97-53, MRSA KM97-108, VRE 49, E. coli NIHJ JC-2, P. aeruginosa PAO-1, P. aeruginosa No. 12, P. aeruginosa KM97-5 were used and, as a medium, Mueller-Hinton Broth (DIFCO) was used. One platinum loop of a test bacterium was inoculated into 20 ml of a medium, and static culture was carried out at 37° C. for 16 to 20 hours, and then each bacterium species was diluted with a sterilized physiological saline to 10^5/ml, which was used as a test bacterium solution.
# (§3) Then, each compound was dissolved in methanol, subjected to ½ stepwise dilution with a medium to prepare a medium for measuring sensitivity, and each 2 ml was dispensed into a test tube. A compound concentration in a medium was adjusted to 100 μg/ml and its 2^n-fold (n=−10 to 1).
# (§4) Numerical values in Tables represent MIC expressed in μg/ml unit.
# S. aureus 209PJC [2] = experiment: Antibacterial activity test (MIC); format: cell-based; details: Mueller-Hinton Broth, 37° C., 20 to 24 hours
# Procedure: as §1, §2, §3, §4
# P. aeruginosa PAO-1 [3] = experiment: Antibacterial activity test (MIC); format: cell-based; details: Mueller-Hinton Broth, 37° C., 20 to 24 hours
# Procedure: as §1, §2, §3, §4
# MRSA 97-115 [4] = experiment: Bactericidal activity test (MBC, phenol coefficient measuring method); format: cell-based, methicillin-resistant Staphylococcus aureus
# Procedure: (§5) As a test bacterium, the same bacteria species as those of the antibacterial activity test were used; as a medium to be used, a SCD medium (manufactured by Eiken Chemical Co., Ltd.) was used for pre-culture medium; and a heart infusion bouillon medium (manufactured by Eiken Chemical Co., Ltd.) was used as a medium for growing a live bacterium in a test solution after bactericidal treatment. One platinum loop of a test bacterium was inoculated into 20 ml of a medium, and static culture was carried out at 37° C. for 18 to 20 hours, and the cells were adjusted with a sterilized physiological saline to 1×10^7/ml, which was used as a test bacterium solution.
# (§6) Then, a solution of each compound in methanol was subjected to ½ stepwise dilution with sterilized water, each 5 ml was dispensed into a test tube, 0.5 ml of the previously prepared test bacterium solution was added thereto, and the mixture was blended well. After 1 minute, 3 minutes and 5 minutes has passed, 5 μl of the test solution was collected and inoculated into 2 ml of a heart infusion bouillon medium, this was cultured at 37° C. for 40 to 48 hours, and the presence or absence of growth of a bacterium was determined. A test was performed three times, a minimum concentration at which growth of a bacterium was not recognized two or more times was adopted as a minimal bactericidal concentration (MBC value).
# (§7) Numerical values in Tables represent MBC expressed in μg/ml unit.
# E. coli NIHJ JC-2 [5] = experiment: as above; format: cell-based
# Procedure: as §5, §6, §7
# S. aureus 209PJC [6] = experiment: as above; format: cell-based
# Procedure: as §5, §6, §7
# P. aeruginosa PAO-1 [7] = experiment: as above; format: cell-based
# Procedure: as §5, §6, §7
# MRSA 97-115 [8] = experiment: Antibacterial activity test (MIC); format: cell-based, methicillin-resistant Staphylococcus aureus; details: Mueller-Hinton Broth, 37° C., 20 to 24 hours
# Procedure: as §1, §2, §3, §4
SMILES,minimal inhibitory concentration (MIC) (E. coli NIHJ JC-2 [1]) [µg/mL],minimal inhibitory concentration (MIC) (S. aureus 209PJC [2]) [µg/mL],minimal inhibitory concentration (MIC) (P. aeruginosa PAO-1 [3]) [µg/mL],minimal bactericidal concentration (MBC) (MRSA 97-115 [4]; 1 min) [µg/mL],minimal bactericidal concentration (MBC) (MRSA 97-115 [4]; 3 min) [µg/mL],minimal bactericidal concentration (MBC) (MRSA 97-115 [4]; 5 min) [µg/mL],minimal bactericidal concentration (MBC) (E. coli NIHJ JC-2 [5]; 1 min) [µg/mL],minimal bactericidal concentration (MBC) (E. coli NIHJ JC-2 [5]; 3 min) [µg/mL],minimal bactericidal concentration (MBC) (E. coli NIHJ JC-2 [5]; 5 min) [µg/mL],minimal bactericidal concentration (MBC) (S. aureus 209PJC [6]; 1 min) [µg/mL],minimal bactericidal concentration (MBC) (S. aureus 209PJC [6]; 3 min) [µg/mL],minimal bactericidal concentration (MBC) (S. aureus 209PJC [6]; 5 min) [µg/mL],minimal bactericidal concentration (MBC) (P. aeruginosa PAO-1 [7]; 1 min) [µg/mL],minimal bactericidal concentration (MBC) (P. aeruginosa PAO-1 [7]; 3 min) [µg/mL],minimal bactericidal concentration (MBC) (P. aeruginosa PAO-1 [7]; 5 min) [µg/mL],minimal inhibitory concentration (MIC) (MRSA 97-115 [8]) [µg/mL]
CCCCCCCCCCCCC1N=C(N)NC(NCCc2ccc(OC)cc2)=N1.Cl (racemic) [15(1)],25,0.4,50,25,12.5,6.3,6.3,3.1,1.6,12.5,3.1,3.1,6.3,3.1,3.1,1.6
CCCCCCCCCCCC1N=C(N)NC(NCc2ccccc2)=N1.Cl (racemic) [43(1)],6.3,0.4,25,50,25,12.5,12.5,6.3,3.1,25,6.3,6.3,3.1,3.1,3.1,0.8
CCCCCCCCCCNC1=NC(C)(C)N=C(NCc2ccc(OC)cc2)N1.CS(=O)(=O)O [38(2)],25,0.4,100,25,12.5,12.5,6.3,3.1,3.1,12.5,6.3,3.1,6.3,3.1,1.6,0.8
CCCCCCCCCCNC1=NC(C)(C)N=C(NCc2ccccc2)N1.CS(=O)(=O)O [compound 2],–,0.4,–,25,12.5,6.3,6.3,3.1,3.1,12.5,6.3,3.1,3.1,1.6,1.6,0.8
CCCCCCCCCCNC1=NC(C)(C)N=C(NCCc2ccc(OC)cc2)N1.Cl [compound 4],50,0.4,50,25,6.3,6.3,3.1,1.6,1.6,50,12.5,6.3,3.1,3.1,1.6,0.8
CCCCCCCCCC1N=C(N)N=C(N)N1c1ccc(C(C)(C)C)cc1.Cl (stereo not drawn) [compound 22],25,0.8,25,25,25,12.5,6.3,6.3,6.3,12.5,6.3,6.3,12.5,3.1,3.1,0.8
CCCCCCCCCCC1N=C(N)N=C(N)N1c1ccc(F)c(F)c1F.Cl (stereo not drawn) [compound 31],12.5,1.6,25,25,12.5,6.3,12.5,12.5,6.3,25,12.5,12.5,12.5,12.5,6.3,3.1
CCCCCCCCNC1=NC(C)(C)N=C(NCc2ccc(C)cc2)N1 [compound 37],12.5,0.8,25,25,25,12.5,12.5,6.3,3.1,12.5,6.3,6.3,3.1,3.1,3.1,1.6
